From patent US10968225B2, “Compounds and compositions for the treatment of cystic fibrosis” (Fondazione Istituto Italiano Di Tecnologia, priority 2017, dated 2021)

Each molecule was assayed against T1, mutant CFTR (Homo sapiens, UniProt P13569, DEL508-508) (assay: Fluorescence (HS-YFP) assay for CFTR activity, corrector assay). Settings: CFBE41o- and FRT cells with stable expression of mutant CFTR, read-out: activity (EC50).
T1 construct: expressed in transfected cells
T1 sequence (P13569 with tags, fused parts or gaps DEL508-508): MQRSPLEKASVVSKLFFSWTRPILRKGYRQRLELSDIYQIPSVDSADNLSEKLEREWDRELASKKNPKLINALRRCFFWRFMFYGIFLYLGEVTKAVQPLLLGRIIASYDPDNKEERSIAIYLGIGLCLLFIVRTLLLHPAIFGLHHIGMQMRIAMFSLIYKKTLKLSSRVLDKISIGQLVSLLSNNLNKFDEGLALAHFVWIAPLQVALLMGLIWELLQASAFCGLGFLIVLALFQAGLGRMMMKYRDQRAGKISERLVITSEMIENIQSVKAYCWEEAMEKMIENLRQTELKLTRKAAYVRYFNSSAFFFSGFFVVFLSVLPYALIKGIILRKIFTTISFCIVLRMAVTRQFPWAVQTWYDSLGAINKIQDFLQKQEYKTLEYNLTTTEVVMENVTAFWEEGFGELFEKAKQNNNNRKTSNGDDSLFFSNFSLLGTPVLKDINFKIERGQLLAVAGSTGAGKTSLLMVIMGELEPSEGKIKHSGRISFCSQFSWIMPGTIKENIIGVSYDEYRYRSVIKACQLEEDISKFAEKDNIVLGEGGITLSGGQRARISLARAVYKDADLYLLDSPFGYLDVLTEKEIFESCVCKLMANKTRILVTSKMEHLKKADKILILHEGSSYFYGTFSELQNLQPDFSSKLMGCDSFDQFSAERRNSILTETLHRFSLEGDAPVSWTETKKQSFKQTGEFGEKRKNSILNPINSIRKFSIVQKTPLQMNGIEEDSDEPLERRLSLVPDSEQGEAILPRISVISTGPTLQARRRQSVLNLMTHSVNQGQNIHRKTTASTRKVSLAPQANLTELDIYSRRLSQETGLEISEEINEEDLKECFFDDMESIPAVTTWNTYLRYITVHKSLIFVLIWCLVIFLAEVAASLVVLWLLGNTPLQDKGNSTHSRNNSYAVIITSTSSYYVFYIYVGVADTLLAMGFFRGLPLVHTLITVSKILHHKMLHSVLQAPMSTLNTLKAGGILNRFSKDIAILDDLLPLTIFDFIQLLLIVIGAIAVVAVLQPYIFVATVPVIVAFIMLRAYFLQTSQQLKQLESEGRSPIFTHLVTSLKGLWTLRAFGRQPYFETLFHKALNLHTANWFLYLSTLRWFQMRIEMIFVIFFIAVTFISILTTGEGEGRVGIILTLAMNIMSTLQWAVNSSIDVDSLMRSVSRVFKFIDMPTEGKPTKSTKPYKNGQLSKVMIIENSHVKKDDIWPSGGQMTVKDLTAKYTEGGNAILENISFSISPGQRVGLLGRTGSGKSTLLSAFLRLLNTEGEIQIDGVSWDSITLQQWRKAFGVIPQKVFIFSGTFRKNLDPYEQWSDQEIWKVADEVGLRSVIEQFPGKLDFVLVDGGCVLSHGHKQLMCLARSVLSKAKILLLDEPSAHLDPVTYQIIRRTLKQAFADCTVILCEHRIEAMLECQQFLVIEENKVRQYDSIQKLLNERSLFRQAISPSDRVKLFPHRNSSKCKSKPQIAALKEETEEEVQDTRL
Assay type: cell-based
COc1cc(N(C)C(=O)c2cccc(-n3nc(C(F)(F)F)c4c3C(Oc3ccc(C(=O)O)cc3)CCC4)c2)ccc1F (racemic) [Compound 308, 4-[[1-[3-[(4-Fluoro-3-methoxy-phenyl)-methyl-carbamoyl]phenyl]-3-(trifluoromethyl)-4,5,6,7-tetrahydroindazol-7-yl]oxy]benzoic acid] was tested, and the EC50 was over 2000 nM. Work on CN(C(=O)c1cccc(-n2nc(C(F)(F)F)c3c2C[C@H]2CC[C@@H]3N2)c1)c1ccc2c(c1)OCO2 (single isomer, unassigned) [Compound 048, (4R,7S)- or (4S,7R)—N-(Benzo[d][1,3]dioxol-5-yl)-N-methyl-3-(3-(trifluoromethyl)-5,6,7,8-tetrahydro-4,7-epiminocyclohepta [c]pyrazol-1(4H)-yl)benzamide] yielded an EC50 of under 1000 nM. Molecule COc1ncc(N(C)C(=O)c2cccc(-n3nc(C(F)(F)F)c4c3C(Oc3ccc(C(=O)O)cc3)CCC4)c2)cn1 (stereo not shown) [Compound 168, 4-[[1-[3-[(2-Methoxypyrimidin-5-yl)-methyl-carbamoyl]phenyl]-3-(trifluoromethyl)-4,5,6,7-tetrahydroindazol-7-yl]oxy]benzoic acid] has an EC50 of under 1000 nM. Work on Cc1nc2ncc(N(C)C(=O)c3cccc(-n4nc(C(F)(F)F)c5c4C(Oc4ccc(C(=O)O)cc4)CCC5)c3)cc2o1 (stereo not shown) [Compound 159, 4-[[1-[3-[Methyl-(2-methyloxazolo[4,5-b]pyridin-6-yl)carbamoyl]phenyl]-3-(trifluoromethyl)-4,5,6,7-tetrahydroindazol-7-yl]oxy]benzoic acid] yielded an EC50 of 1000 to 2000 nM. CC(=O)Nc1ccc(N(C)C(=O)c2cccc(-n3nc(C(F)(F)F)c4c3CCN(C)C4)c2)cc1O [Compound 041, N-(4-Acetamido-3-hydroxy-phenyl)-N-methyl-3-[5-methyl-3-(trifluoromethyl)-6,7-dihydro-4H-pyrazolo[4,3-c]pyridin-1-yl]benzamide] gave an EC50 of over 2000 nM. Molecule CC(C)C(=O)N1CCc2c(c(C(F)(F)F)nn2-c2cccc(C(=O)N(C)c3ccc4c(c3)OCO4)c2)C1 [Compound 031, N-(1,3-Benzodioxol-5-yl)-N-methyl-3-[5-(2-methylpropanoyl)-3-(trifluoromethyl)-6,7-dihydro-4H-pyrazolo[4,3-c]pyridin-1-yl]benzamide] has an EC50 of under 1000 nM. In the case of CN(C(=O)c1cccc(-n2nc(C(F)(F)F)c3c2C(Oc2ccc(C(=O)O)cc2)CCC3)c1)c1cncc(Cl)c1 (racemic) [Compound 309, 4-[[1-[3-[(5-chloro-3-pyridyl)-methyl-carbamoyl]phenyl]-3-(trifluoromethyl)-4,5,6,7-tetrahydroindazol-7-yl]oxy]benzoic acid], the EC50 is reported as over 2000 nM. For Cc1nn(CCC(=O)OC(C)(C)C)c(C)c1S(=O)(=O)N1CCc2c(c(C(F)(F)F)nn2-c2cccc(C(=O)N(C)c3ccc4c(c3)OCO4)c2)C1 [Compound 082, tert-Butyl 3-[4-[[1-[3-[1,3-benzodioxol-5-yl(methyl)carbamoyl]phenyl]-3-(trifluoromethyl)-6,7-dihydro-4H-pyrazolo[4,3-c]pyridin-5-yl]sulfonyl]-3,5-dimethyl-pyrazol-1-yl]propanoate], the EC50 was under 1000 nM. CN(c1ccc2c(c1)OCO2)S(=O)(=O)c1cccc(-n2nc(C(F)(F)F)c3c2CCN(C(=O)OC(C)(C)C)C3)c1 [Compound 065, tert-Butyl 1-[3-[1,3-benzodioxol-5-yl(methyl)sulfamoyl]phenyl]-3-(trifluoromethyl)-6,7-dihydro-4H-pyrazolo[4,3-c]pyridine-5-carboxylate] was tested, and the EC50 was over 2000 nM. With COc1ccc(N(C)C(=O)c2cccc(-n3nc(C(F)(F)F)c4c3C(Oc3ccc(C(=O)O)cc3)CCC4)c2)cc1OC (racemic) [Compound 311, 4-[[1-[3-[(3,4-Dimethoxyphenyl)-methyl-carbamoyl]phenyl]-3-(trifluoromethyl)-4,5,6,7-tetrahydroindazol-7-yl]oxy]benzoic acid] the EC50 was over 2000 nM. CN(C(=O)c1cccc(-n2nc(C(F)(F)F)c3c2C(Oc2ncc(C(=O)O)cn2)COC3)c1)c1cnc2c(c1)CCC2 (racemic) [Compound 305, (rac)-2-[[1-[3-[6,7-dihydro-5H-cyclopenta[b]pyridin-3-yl(methyl)carbamoyl]phenyl]-3-(trifluoro-methyl)-6,7-dihydro-4H-pyrano[4,3-c]pyrazol-7-yl]oxy]pyrimidine-5-carboxylic acid] gave an EC50 of under 1000 nM. Molecule CN1CCOc2c(c(C(F)(F)F)nn2-c2cccc(C(=O)N(C)c3ccc4c(c3)OCO4)c2)C1 [Compound 017, N-(1,3-Benzodioxol-5-yl)-N-methyl-3-[5-methyl-3-(trifluoromethyl)-6,7-dihydro-4H-pyrazolo[4,3-f][1,4]oxazepin-1-yl]benzamide] has an EC50 of under 1000 nM. In the case of Cc1nc2ncc(N(C)C(=O)c3cccc(-n4nc(C(F)(F)F)c5c4C(Oc4ccc(C(=O)O)cc4)CCC5)c3)cc2o1 (single isomer, unassigned) [Compound 286, (R) or (S)-4-[[1-[3-[Methyl-(2-methyloxazolo[4,5-b]pyridin-6-yl)carbamoyl]phenyl]-3-(trifluoromethyl)-4,5,6,7-tetrahydroindazol-7-yl]oxy]benzoic acid], the EC50 is reported as 1000 to 2000 nM. For CN(C(=O)c1cccc(-n2nc(C(F)(F)F)c3c2C(Oc2ccc(C(=O)O)cn2)COC3)c1)c1ccc2c(c1)OC(F)(F)O2 (single isomer, unassigned) [Compound 278, (R) or (S)-6-[[1-[3-[(2,2-difluoro-1,3-benzodioxol-5-yl)-methyl-carbamoyl]phenyl]-3-(trifluoromethyl)-6,7-dihydro-4H-pyrano[4,3-c]pyrazol-7-yl]oxy]pyridine-3-carboxylic acid], the EC50 was under 1000 nM. For CN(C(=O)c1cccc(-n2nc(C(F)(F)F)c3c2C(Oc2ccc(C(=O)O)nc2)CCC3)c1)c1ccc2c(c1)OC(F)(F)O2 (single isomer, unassigned) [Compound 186, (R) or (S)-5-[[1-[3-[(2,2-Difluoro-1,3-benzodioxol-5-yl)-methyl-carbamoyl]phenyl]-3-(trifluoromethyl)-4,5,6,7-tetrahydroindazol-7-yl]oxy]pyridine-2-carboxylic acid], the EC50 was under 1000 nM. Cc1nn(-c2cccc(C(=O)N(C)c3ccc4c(c3)OCO4)c2)c2c1CCCC2 [Compound 132, N-(1,3-Benzodioxol-5-yl)-N-methyl-3-(3-methyl-4,5,6,7-tetrahydroindazol-1-yl)benzamide] was tested, and the EC50 was 1000 to 2000 nM. In the case of Cc1noc(C)c1S(=O)(=O)N1CCc2c(c(C(F)(F)F)nn2-c2cccc(C(=O)N(C)c3ccc4c(c3)OCO4)c2)C1 [Compound 067, N-(1,3-benzodioxol-5-yl)-3-[5-(3,5-dimethylisoxazol-4-yl)sulfonyl-3-(trifluoromethyl)-6,7-dihydro-4H-pyrazolo[4,3-c]pyridin-1-yl]-N-methyl-benzamide], the EC50 is reported as under 1000 nM. COc1ncc(N(C)C(=O)c2cccc(-n3nc(C(F)(F)F)c4c3C(Oc3ccc(C(=O)O)cc3)COC4)c2)cn1 (racemic) [Compound 306, 4-[[1-[3-[(2-Methoxypyrimidin-5-yl)-methyl-carbamoyl]phenyl]-3-(trifluoromethyl)-6,7-dihydro-4H-pyrano[4,3-c]pyrazol-7-yl]oxy]benzoic acid] was tested, and the EC50 was 1000 to 2000 nM. Molecule CN(C(=O)c1cccc(-n2nc(C(F)(F)F)c3c2C(Oc2ccc(C(=O)O)cc2)CCC3)c1)c1cncc(F)c1 (racemic) [Compound 307, (rac)-4-[[1-[3-[(5-fluoro-3-pyridyl)methyl-carbamoyl]phenyl]-3-(trifluoromethyl)-4,5,6,7-tetrahydroindazol-7-yl]oxy]benzoic acid] has an EC50 of over 2000 nM.
